# According to ChEMBL document CHEMBL5512599, “Synthetic non-toxic anti-biofilm agents as a strategy in combating bacterial resistance” (Eur J Med Chem, 2023):
# Experiments:
# [1] = Inhibition of Staphylococcus aureus sortase A by FRET assay
# Staphylococcus aureus [2] = assay: Antibacterial activity against Staphylococcus aureus ATCC 25923 assessed as reduction in bacterial growth incubated for 18 to 24 hrs by broth microdilution method; format: functional; conditions: time 18-24 hrs
# [3] = system: Staphylococcus epidermidis; assay: Antibacterial activity against Staphylococcus epidermidis RP62A assessed as reduction in bacterial growth incubated for 18 to 20 hrs by broth microdilution assay; format: functional; conditions: time 18-20 hrs
# Staphylococcus aureus [4] = assay: Antibacterial activity against Staphylococcus aureus ATCC 29213 assessed as reduction in bacterial growth incubated for 18 to 24 hrs by broth microdilution method; format: functional; conditions: time 18-24 hrs
# Staphylococcus aureus [5] = assay: Antibiofilm activity against Staphylococcus aureus ATCC 25923 after 24 hrs by crystal violet staining based assay; format: functional
# Staphylococcus aureus [6] = assay: Antibacterial activity against Staphylococcus aureus ATCC 6538 assessed as reduction in bacterial growth incubated for 18 to 24 hrs by broth microdilution method; format: functional; conditions: time 18-24 hrs
# Klebsiella pneumoniae [7] = assay: Antibacterial activity against Klebsiella pneumoniae ATCC 13882 assessed as fold change in colistin MIC incubated for 16 to 18 hrs by broth microdilution method; format: functional; conditions: time 16-18 hrs
# Klebsiella pneumoniae [8] = assay: Antibiofilm activity against Klebsiella pneumoniae ATCC 13882 assessed as inhibition of biofilm formation incubated for 24 hrs by crystal violet staining based broth microdilution method; format: functional, organism-based; conditions: ATCC 13882, 24 h
# Staphylococcus aureus [9] = assay: Antibiofilm activity against Methicillin-sensitive Staphylococcus aureus ATCC 29213 assessed as reduction in biofilm formation at 200 uM incubated for 24 hrs by crystal violet staining based analysis relative to control; format: functional; design: scale not given: the % may be the effect or the level left
# Staphylococcus aureus [10] = assay: Antibacterial activity against methicillin-sensitive Staphylococcus aureus ATCC 29213 assessed as reduction in bacterial growth incubated for 18 hrs by mueller hinton broth dilution method; format: functional, organism-based; conditions: ATCC 29213, 18 h
# Staphylococcus aureus [11] = assay: Antibacterial activity against […] Staphylococcus aureus ATCC 29213 assessed as reduction in bacterial growth incubated for 18 hrs by mueller hinton broth dilution method; format: functional, organism-based; conditions: ATCC 29213, 18 h
# Staphylococcus aureus [12] = assay: Antibacterial activity against Staphylococcus aureus MLS16 MTCC 2940 assessed as bacterial growth inhibition measured after 24 hrs by microdilution assay; format: functional
# Micrococcus luteus = assay: Antibacterial activity against Micrococcus luteus MTCC 2470 assessed as inhibition of bacterial growth incubated for 24 hrs by agar well diffusion method; format: functional
# Staphylococcus aureus [13] = assay: Antibacterial activity against Staphylococcus aureus MTCC 96 assessed as reduction in microbial growth after 24 hrs by CLSI based microdilution method; format: functional
# [14] = system: Staphylococcus epidermidis; assay: Antibiofilm activity against Staphylococcus epidermidis clinical isolate 519/12 assessed as inhibition of biofilm formation measured after 24 hrs by confocal laser scanning microscopy analysis; format: functional, organism-based
# [15] = system: Staphylococcus epidermidis; assay: Antibiofilm activity against Staphylococcus epidermidis ATCC 12228 assessed as inhibition of biofilm formation measured after 24 hrs by confocal laser scanning microscopy analysis; format: functional, organism-based; conditions: ATCC 12228, 24 h
# [16] = system: Staphylococcus epidermidis; assay: Antibacterial activity against Staphylococcus epidermidis clinical isolate 517/12 assessed as reduction in bacterial growth measured after 24 hrs by CLSI based broth micro-dilution method; format: functional
# [17] = system: Staphylococcus epidermidis; assay: Antibiofilm activity against Staphylococcus epidermidis clinical isolate 528/12 assessed as inhibition of biofilm formation measured after 24 hrs by confocal laser scanning microscopy analysis; format: functional, organism-based
# [18] = system: Staphylococcus epidermidis; assay: Antibiofilm activity against Staphylococcus epidermidis clinical isolate 533/12 assessed as inhibition of biofilm formation measured after 24 hrs by confocal laser scanning microscopy analysis; format: functional, organism-based
# [19] = system: Staphylococcus epidermidis; assay: Antibacterial activity against Staphylococcus epidermidis clinical isolate 528/12 assessed as reduction in bacterial growth measured after 24 hrs by CLSI based broth micro-dilution method; format: functional
# [20] = system: Staphylococcus epidermidis; assay: Antibiofilm activity against Staphylococcus epidermidis clinical isolate 532/12 assessed as inhibition of biofilm formation measured after 24 hrs by confocal laser scanning microscopy analysis; format: functional, organism-based
# [21] = system: Staphylococcus epidermidis; assay: Antibiofilm activity against Staphylococcus epidermidis clinical isolate 531/12 assessed as inhibition of biofilm formation measured after 24 hrs by confocal laser scanning microscopy analysis; format: functional, organism-based
# [22] = system: Staphylococcus epidermidis; assay: Antibiofilm activity against Staphylococcus epidermidis clinical isolate 517/12 assessed as inhibition of biofilm formation measured after 24 hrs by confocal laser scanning microscopy analysis; format: functional, organism-based
# [23] = system: Staphylococcus epidermidis; assay: Antimicrobial activity against Staphylococcus epidermidis ATCC 12228 assessed as reduction in microbial growth after 24 hrs by CLSI based broth microdilution method; format: functional
# [24] = system: Staphylococcus epidermidis; assay: Antibacterial activity against Staphylococcus epidermidis clinical isolate 531/12 assessed as reduction in bacterial growth measured after 24 hrs by CLSI based broth micro-dilution method; format: functional
# [25] = system: Staphylococcus epidermidis; assay: Antibacterial activity against Staphylococcus epidermidis clinical isolate 532/12 assessed as reduction in bacterial growth measured after 24 hrs by CLSI based broth micro-dilution method; format: functional
# [26] = system: Staphylococcus epidermidis; assay: Antibiofilm activity against Staphylococcus epidermidis clinical isolate 523/12 assessed as inhibition of biofilm formation measured after 24 hrs by confocal laser scanning microscopy analysis; format: functional, organism-based
# [27] = system: Staphylococcus epidermidis; assay: Antibacterial activity against Staphylococcus epidermidis clinical isolate 533/12 assessed as reduction in bacterial growth measured after 24 hrs by CLSI based broth micro-dilution method; format: functional
# [28] = system: Staphylococcus epidermidis; assay: Antimicrobial activity against Staphylococcus epidermidis ATCC 35984 assessed as reduction in microbial growth after 24 hrs by CLSI based broth microdilution method; format: functional
# [29] = system: Staphylococcus epidermidis; assay: Antibiofilm activity against Staphylococcus epidermidis clinical isolate 526/12 assessed as inhibition of biofilm formation measured after 24 hrs by confocal laser scanning microscopy analysis; format: functional, organism-based
compound,measurement,setting,value
CC(=O)/C(=N\Nc1ccccc1)C(=O)O,IC50,[1],80 µM
same,MIC,Staphylococcus aureus [2],> 270 µM
same,MIC,[3],> 270 µM
same,MIC,Staphylococcus aureus [4],> 270 µM
same,Activity,Staphylococcus aureus [5],60%
same,MIC,Staphylococcus aureus [6],> 270 µM
Nc1nccc(-c2cccc(NC(=O)c3cc(Br)cc(Br)c3)c2)n1,fold change (FC),Klebsiella pneumoniae [7],32
same,IC50,Klebsiella pneumoniae [8],17.4 µM
CCCCCCCCCC(=O)NCCCc1cnc(N)nc1,Activity,Staphylococcus aureus [9],80%
same,IC50,Staphylococcus aureus [10],67 µM
Nc1ncc(C#CC2CCCC2)cn1,IC50,Staphylococcus aureus [11],72 µM
same,Activity,Staphylococcus aureus [9],85%
CCCCCCCCc1ccc(C(F)(F)F)nc1OCc1cn(C#N)nn1,MIC,Staphylococcus aureus [12],9.37 µM
same,MIC,Micrococcus luteus,18.8 µM
same,MIC,Staphylococcus aureus [13],9.37 µM
Fc1ccc(NC(=S)Nc2nccs2)cc1Cl,IC50,[14],2.5 µg/mL
same,IC50,[15],0.35 µg/mL
same,MIC,[16],8 µg/mL
same,IC50,[17],1.11 µg/mL
same,IC50,[18],2.88 µg/mL
same,MIC,[19],8 µg/mL
same,IC50,[20],2.21 µg/mL
same,IC50,[21],1.13 µg/mL
same,IC50,[22],0.66 µg/mL
same,MIC,[23],4 µg/mL
same,MIC,[24],4 µg/mL
same,MIC,[25],4 µg/mL
same,IC50,[26],3.14 µg/mL
same,MIC,[27],4 µg/mL
same,MIC,[28],4 µg/mL
same,IC50,[29],4.95 µg/mL
